Source: patent US20200253929A1, “TREATMENT OF EPILEPSY” (priority 2017, published 2020)
pIC50: −log10 of the molar value.

Experiments:
HEPG2 cells = experiment: Cell viability MTT assay, HEPG2 cells; type: cell-based, human; conditions: 24 h incubation; for pIC50: read-out: Cytotoxicity HEPG2 cells IC50
Method: (§1) Protocol was based on literature [Patel and Patel. (2011) J. App. Pharm. Sci 1, 167-171]. Three cell lines were used: a) Hep G2 (HB-8065), a well-differentiated human hepatocellular carcinoma cell line, b) THLE-2, human liver epithelial cells transformed with SV40 large T-antigen and c) SHSYSY, a thrice-cloned sub-line of a human metastatic bone tumor. Cells were seeded at a concentration of 1×10^4 cells/well in 200 μL culture medium and incubated at 37° C. in 5% CO2 using 96-well plates for 24 h. Next, the medium was replaced with medium complemented with test compounds. After another 24 h incubation, the medium was replaced by 100 μL of a MTT (3-(4,5-dimethylthiazol-2-yl)-2,5-diphenyltetrazolium bromide) solution (5 mg/mL in PBS and diluted at 0.5 mg/mL in MEM without phenol red). The plates were gently shaken and incubated for 3 hours at 37° C. in a 5% CO2 incubator. The supernatant was removed and 100 μL of 100% DMSO was added. The plates were gently shaken to solubilize the formed formazan. The absorbance was measured using a multireader (Victor2 (Wallac)) at a wavelength of 570 nm.

THLE2 cells = experiment: Cell viability MTT assay, THLE2 cells; type: cell-based, human; conditions: 24 h incubation; for pIC50: read-out: Cytotoxicity THLE2 cells IC50
Method: as §1

Cav1.2 channel = biological target: T1, Cav1.2 channel (Homo sapiens, UniProt Q13936); experiment: Cardiotoxicity fluorescence-based assay, Cav1.2 channel; type: cell-based; conditions: HEK293 cells
T1 construct: expressed in transfected cells; host or cells: HEK293
T1 sequence (P54289 25-1103): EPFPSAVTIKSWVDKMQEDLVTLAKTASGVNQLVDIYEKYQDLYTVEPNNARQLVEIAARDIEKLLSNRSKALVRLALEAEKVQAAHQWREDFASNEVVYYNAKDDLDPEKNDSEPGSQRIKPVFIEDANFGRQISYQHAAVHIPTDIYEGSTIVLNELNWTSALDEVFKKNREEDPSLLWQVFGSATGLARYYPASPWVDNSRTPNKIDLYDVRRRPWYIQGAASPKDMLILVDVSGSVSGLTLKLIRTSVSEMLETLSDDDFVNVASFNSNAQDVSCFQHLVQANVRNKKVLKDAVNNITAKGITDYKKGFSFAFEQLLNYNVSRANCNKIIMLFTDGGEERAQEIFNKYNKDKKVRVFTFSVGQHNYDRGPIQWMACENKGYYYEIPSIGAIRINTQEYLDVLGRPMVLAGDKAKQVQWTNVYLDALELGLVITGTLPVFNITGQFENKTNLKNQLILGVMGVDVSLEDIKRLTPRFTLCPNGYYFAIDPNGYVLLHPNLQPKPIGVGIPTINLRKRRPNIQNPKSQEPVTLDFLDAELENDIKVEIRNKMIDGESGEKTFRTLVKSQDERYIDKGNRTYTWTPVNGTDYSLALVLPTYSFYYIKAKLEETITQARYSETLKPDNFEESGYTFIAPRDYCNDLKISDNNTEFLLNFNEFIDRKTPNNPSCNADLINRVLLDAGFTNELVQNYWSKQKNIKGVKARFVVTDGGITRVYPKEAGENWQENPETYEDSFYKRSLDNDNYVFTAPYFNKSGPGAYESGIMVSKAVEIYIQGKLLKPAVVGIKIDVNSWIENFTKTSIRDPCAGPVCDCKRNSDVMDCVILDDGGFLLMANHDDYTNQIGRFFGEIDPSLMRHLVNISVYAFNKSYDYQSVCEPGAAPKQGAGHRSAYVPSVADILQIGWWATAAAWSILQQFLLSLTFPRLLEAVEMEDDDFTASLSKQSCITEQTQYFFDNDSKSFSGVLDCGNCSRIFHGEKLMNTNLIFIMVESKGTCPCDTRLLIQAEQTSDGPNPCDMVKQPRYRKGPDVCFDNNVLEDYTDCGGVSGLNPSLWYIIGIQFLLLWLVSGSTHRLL
T1 sequence (Q08289 whole entry, further chain): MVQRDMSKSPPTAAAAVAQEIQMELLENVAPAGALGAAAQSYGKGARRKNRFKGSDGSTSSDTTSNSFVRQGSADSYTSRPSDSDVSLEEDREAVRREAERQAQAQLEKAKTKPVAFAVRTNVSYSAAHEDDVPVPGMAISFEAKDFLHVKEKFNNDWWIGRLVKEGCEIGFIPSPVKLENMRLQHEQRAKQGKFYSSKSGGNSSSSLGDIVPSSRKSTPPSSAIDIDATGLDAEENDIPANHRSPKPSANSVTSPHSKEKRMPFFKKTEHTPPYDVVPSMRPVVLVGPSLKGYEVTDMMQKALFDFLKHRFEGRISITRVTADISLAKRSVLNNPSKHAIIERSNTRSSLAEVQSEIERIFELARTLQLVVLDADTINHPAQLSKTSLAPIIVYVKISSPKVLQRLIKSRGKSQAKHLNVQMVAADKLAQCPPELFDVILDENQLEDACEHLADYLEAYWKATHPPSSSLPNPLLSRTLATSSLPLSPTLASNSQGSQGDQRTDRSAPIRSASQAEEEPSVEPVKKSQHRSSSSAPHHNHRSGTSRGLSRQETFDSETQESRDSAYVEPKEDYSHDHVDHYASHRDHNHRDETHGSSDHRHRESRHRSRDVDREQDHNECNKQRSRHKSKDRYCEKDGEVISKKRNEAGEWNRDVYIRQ
T1 sequence (Q13936 whole entry): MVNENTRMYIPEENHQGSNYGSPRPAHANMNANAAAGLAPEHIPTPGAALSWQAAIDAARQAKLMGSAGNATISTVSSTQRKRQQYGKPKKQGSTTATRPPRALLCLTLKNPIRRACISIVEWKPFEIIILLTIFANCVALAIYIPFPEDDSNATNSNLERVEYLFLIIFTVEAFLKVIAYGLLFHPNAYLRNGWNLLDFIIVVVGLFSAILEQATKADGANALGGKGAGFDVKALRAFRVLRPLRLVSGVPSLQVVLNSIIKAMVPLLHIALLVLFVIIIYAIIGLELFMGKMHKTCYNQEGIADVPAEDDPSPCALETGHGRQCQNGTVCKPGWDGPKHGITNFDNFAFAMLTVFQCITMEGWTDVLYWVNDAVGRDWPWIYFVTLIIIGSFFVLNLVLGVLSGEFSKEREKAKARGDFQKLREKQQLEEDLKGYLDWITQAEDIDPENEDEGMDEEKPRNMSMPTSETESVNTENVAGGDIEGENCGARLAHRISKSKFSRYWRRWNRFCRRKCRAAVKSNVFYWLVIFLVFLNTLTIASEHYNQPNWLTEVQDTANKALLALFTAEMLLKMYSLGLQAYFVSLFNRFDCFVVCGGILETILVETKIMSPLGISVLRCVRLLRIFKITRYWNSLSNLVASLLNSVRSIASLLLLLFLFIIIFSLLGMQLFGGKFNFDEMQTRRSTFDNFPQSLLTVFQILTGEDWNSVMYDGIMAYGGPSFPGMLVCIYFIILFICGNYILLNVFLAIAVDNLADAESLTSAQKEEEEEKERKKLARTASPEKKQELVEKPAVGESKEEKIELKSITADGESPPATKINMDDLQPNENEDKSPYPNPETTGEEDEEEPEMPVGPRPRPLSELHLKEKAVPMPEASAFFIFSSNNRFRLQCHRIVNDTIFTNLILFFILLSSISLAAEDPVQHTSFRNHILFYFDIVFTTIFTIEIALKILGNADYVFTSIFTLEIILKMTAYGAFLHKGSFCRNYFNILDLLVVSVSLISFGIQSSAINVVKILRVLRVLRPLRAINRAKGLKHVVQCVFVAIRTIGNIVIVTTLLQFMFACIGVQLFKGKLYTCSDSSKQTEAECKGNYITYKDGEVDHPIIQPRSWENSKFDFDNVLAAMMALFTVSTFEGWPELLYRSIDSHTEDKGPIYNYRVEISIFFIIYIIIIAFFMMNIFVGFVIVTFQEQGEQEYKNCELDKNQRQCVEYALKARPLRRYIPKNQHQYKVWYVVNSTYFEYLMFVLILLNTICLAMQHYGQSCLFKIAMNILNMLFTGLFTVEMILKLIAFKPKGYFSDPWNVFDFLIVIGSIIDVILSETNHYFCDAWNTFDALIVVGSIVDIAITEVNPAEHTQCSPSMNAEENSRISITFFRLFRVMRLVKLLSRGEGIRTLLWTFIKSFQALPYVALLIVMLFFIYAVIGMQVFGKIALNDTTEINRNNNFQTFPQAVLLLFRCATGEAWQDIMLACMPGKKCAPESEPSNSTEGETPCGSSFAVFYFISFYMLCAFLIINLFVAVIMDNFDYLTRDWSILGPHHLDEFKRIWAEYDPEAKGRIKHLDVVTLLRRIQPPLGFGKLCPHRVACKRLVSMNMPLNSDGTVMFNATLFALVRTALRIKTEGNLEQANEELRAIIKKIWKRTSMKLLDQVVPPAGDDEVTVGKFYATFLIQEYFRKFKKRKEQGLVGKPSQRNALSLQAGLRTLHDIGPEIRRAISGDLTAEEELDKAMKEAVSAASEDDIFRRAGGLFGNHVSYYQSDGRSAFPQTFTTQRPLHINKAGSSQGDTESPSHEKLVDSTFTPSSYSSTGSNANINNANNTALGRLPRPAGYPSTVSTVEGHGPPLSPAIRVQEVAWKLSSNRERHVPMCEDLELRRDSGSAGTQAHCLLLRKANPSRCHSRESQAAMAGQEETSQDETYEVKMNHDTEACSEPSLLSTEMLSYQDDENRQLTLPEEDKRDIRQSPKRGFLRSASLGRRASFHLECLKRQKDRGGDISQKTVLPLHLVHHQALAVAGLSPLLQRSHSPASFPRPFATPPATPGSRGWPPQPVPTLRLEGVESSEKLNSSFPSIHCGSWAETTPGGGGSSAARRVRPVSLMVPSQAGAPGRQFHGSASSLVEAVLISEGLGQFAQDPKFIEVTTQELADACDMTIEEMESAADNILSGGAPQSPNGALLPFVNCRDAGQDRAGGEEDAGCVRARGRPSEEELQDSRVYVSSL
Method: (§2) Fluorescence-based assays were performed using HEK293 cell lines that stably express the Nav1.5-channel, Cav1.2-channel or hERG K+-channel, using FMP Red Dye (Molecular Devices), calcium-sensitive fluorescent dye Fluo-4 (Invitrogen) and FIuxOR™ reagent (Invitrogen), respectively, and a FLIPR Tetra High-Throughput Cellular Screening System (Molecular Devices), according to manufacturer's protocols (Molecular Devices). Tetrodotoxin (TTX), israpidine and nicarpidine, and astemizole and haloperidol were used as standard sodium channel, calcium channel, and hERG channel blockers. Data were analyzed using Genedata Screener.

hERG channel = biological target: T2, hERG channel (Homo sapiens, UniProt Q12809); experiment: Cardiotoxicity fluorescence-based assay, hERG channel; type: cell-based; conditions: HEK293 cells
T2 construct: expressed in transfected cells; host or cells: HEK293
T2 sequence (Q12809 whole entry): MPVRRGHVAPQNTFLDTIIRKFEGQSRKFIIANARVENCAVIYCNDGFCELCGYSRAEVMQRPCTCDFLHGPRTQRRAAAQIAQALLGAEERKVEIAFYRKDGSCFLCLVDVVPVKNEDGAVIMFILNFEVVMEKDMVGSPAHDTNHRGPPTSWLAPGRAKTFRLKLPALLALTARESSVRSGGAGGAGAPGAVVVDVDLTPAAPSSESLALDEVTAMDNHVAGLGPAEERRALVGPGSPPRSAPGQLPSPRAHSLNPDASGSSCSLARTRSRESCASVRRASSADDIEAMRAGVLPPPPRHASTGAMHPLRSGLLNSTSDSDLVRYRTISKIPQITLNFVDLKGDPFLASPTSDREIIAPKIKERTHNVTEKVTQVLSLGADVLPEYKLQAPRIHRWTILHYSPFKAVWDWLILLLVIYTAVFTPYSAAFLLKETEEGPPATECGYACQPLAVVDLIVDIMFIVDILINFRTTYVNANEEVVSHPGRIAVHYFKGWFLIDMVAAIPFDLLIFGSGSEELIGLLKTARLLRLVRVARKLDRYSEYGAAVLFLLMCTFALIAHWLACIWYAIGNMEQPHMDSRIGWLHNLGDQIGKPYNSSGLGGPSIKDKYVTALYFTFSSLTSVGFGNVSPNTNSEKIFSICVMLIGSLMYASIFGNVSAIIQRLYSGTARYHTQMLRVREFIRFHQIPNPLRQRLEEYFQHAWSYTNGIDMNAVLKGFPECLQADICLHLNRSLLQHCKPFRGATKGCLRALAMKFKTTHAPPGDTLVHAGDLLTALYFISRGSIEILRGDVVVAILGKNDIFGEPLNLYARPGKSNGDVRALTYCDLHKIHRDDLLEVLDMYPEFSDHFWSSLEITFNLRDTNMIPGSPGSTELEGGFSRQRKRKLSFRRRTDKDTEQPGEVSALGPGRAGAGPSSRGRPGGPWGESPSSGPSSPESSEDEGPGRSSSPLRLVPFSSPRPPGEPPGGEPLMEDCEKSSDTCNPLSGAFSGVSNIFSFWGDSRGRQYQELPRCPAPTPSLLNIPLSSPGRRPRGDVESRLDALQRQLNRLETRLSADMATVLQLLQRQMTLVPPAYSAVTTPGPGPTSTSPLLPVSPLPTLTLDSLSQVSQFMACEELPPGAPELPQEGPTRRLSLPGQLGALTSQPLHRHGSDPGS
Method: as §2

CYP2D6 = biological target: T3, CYP2D6 (Homo sapiens, UniProt P10635); experiment: CYP450 enzyme inhibition assay, CYP2D6; type: in vitro ADME; conditions: human liver microsomes; for pIC50: dextromethorphan probe
T3 construct: containing Human Liver Microsomes (HLM) (0.5 mg/mL); from tissue; host or cells: human liver microsomes
Method: Protocol was based on literature [Perez-Del Palacio et al. (2017) Front Pharmacol 8, 202]. Assessment of CYP450 inhibition was conducted in 96-well plate format at 37° C. Test compounds were dissolved in DMSO/acetonitrile (2 μL) and diluted in 98 μL NADPH solution (2 mM). Reactions were started by addition of 100 μL potassium phosphate buffer (200 mM, pH 7.4) containing Human Liver Microsomes (HLM) (0.5 mg/mL). Probe reactions for CYP3A4, CYP2D6 and CYP2C9 were conducted with 50 μM testosterone, 22 μM dextromethorphan and 10 μM diclofenac for 15 min. Reactions were terminated with the addition of a quench solution (90 μL) of acetonitrile containing internal standards for LC-MS/MS determination (60 ppb cortisone, 100 ppb 4′-hydroxydiclofenac 13C6, 60 ppb levallorphan).

[1] = Plasma protein binding assay (rapid equilibrium dialysis); type: in vitro ADME; conditions: for Protein binding: rapid equilibrium dialysis, 5 μM, 5 h
Method: Protocol was based on literature [Kumar Singh et al. (2012)1 Bioeq. Bioay. S14]. Rapid equilibrium dialysis was performed with RED device inserts (Thermo Scientific, Meridian Rd., Rockford, Ill.) containing dialysis membrane with a molecular weight cut-off of 8,000 Daltons. Serum (200 μL) containing test compound (5 μM) was added to the serum chamber of the insert and 350 μL of buffer was added to the buffer chamber of the insert. Dialysis was done at 37° C. with shaking at 100 rpm for 5 h. Following dialysis, an aliquot of 50 μL was removed from each well (plasma and buffer side) and diluted with an equal volume of opposite matrix to nullify the matrix effect. Then a fraction (50 μL) of each dialyzed sample was crashed with 150 μL of acetonitrile containing internal standard and vortexed for 1 min. The samples were centrifuged at 13300 rpm at 4° C. for 12 min and 100 μL of supernatant was used for LC-MS/MS analysis.

[2] = Parallel artificial membrane permeability assay (PAMPA); type: in vitro ADME; conditions: for Permeability: 10 μM, 5 h, RT
Method: The Gentest Pre-coated PAMPA Plate System (Corning) was used to perform the permeability assays. The 96 well filter plate, pre-coated with lipids, was used as the permeation acceptor and a matching 96 well receiver plate was used as the permeation donor. Compound solutions were prepared by diluting 10 mM DMSO stock solutions in PBS with a final concentration at 10 μM. The compound solutions were added to the wells (300 μL/well) of the receiver plate and PBS was added to the wells (200 μL/well) of the pre-coated filter plate. The filter plate was then coupled with the receiver plate and the plate assembly was incubated at RT without agitation for 5 h. Next, the plates were separated and 50 μL solution from each well of both the filter plate and the receiver plate was transferred to a vial with 150 μL acetonitrile and centrifuged at 13300 rpm for 10 min at 4° C. The supernatant was diluted in a solution water/acetonitrile (50/50). The final concentration of compounds in both donor wells and acceptor wells was analyzed by LC-MS/MS. Permeability of the compounds was calculated using the following equation:
Permeability (cm/s): Pe={−ln[1−CA(t)/Ceq]}/[A*(1/VD+1/VA)*t]}
A=filter area (0.3 cm2), VD=donor well volume (0.3 mL), VA=acceptor well volume (0.2 mL), t=incubation time (s), CA(t)=compound concentration in acceptor well at time t, CD(t)=compound concentration in donor well at time t, and Ceq=[CD(t)*VD+CA(t)*VA]/(VD+VA)]

SMILES	Cytotoxicity HEPG2 cells, effect (HEPG2 cells)	pIC50 (HEPG2 cells)	Cytotoxicity THLE2 cells, effect (THLE2 cells)	pIC50 (THLE2 cells)	Cardiotoxicity Cav1.2 channel, effect (Cav1.2 channel)	pIC50 (Cav1.2 channel)	Cardiotoxicity hERG channel, effect (hERG channel)	pIC50 (hERG channel)	CYP2D6, effect (CYP2D6)	pIC50 (CYP2D6)	Protein binding assay recovery [1] [%]	Protein binding, percentage of free drug rating [1]	Protein binding [1] [%]	Protein binding ([1]; listed as Azaspirofuran A) [%]	Permeability, rating [2]	Permeability [2] [×10⁻⁶ cm/s]	Protein binding ([1]; listed as Pseurotin A2) [%]
CCc1ccc(C2=C(C)C(=O)C3(O2)C(=O)NC(OC)(C(=O)c2ccccc2)C3O)o1 (centres unmarked) [azaspirofuran A]	No effect	< 4.30	Weak	< 4.30	No effect	< 4.30	No effect	< 4.30	Weak	4.63	66.7	Low	95	95.42	High	18.64	
CC/C=C\[C@H](O)[C@H](O)C1=C(C)C(=O)[C@]2(O1)C(=O)N[C@](OC)(C(=O)c1ccccc1)[C@H]2O [pseurotin A2]	No effect	< 4.30	Weak	< 4.30	No effect	< 4.30	No effect	< 4.30	No effect	< 4.06	100	High	37		Low	0.05	36.53
